From patent publication US20160016916A1, “Exo Olefin-Containing Nuclear Transport Modulators and Uses Thereof” (KARYOPHARM THERAPEUTICS INC., priority 2013, published 2016)

Key:
CRM1 = molecular target: T1, CRM1 (Homo sapiens, UniProt O14980); assay: CRM1-mediated nuclear export assay (GFP nuclear localization in HeLa cells); type: cell-based; details: HeLa cells expressing NLS-GFP-NES(PKI), 3 hours, concentration at which approximately 50% of the cells showed nuclear GFP
T1 construct: HeLa cells expressing GFP that was N-terminally fused to a nuclear localization and C-terminally fused to the nuclear export signal of PKI; endogenous in cells; host or cells: HeLa cells expressing an NLS-GFP-NES(PKI) reporter
T1 sequence (O14980 whole entry, the tested form may be a part): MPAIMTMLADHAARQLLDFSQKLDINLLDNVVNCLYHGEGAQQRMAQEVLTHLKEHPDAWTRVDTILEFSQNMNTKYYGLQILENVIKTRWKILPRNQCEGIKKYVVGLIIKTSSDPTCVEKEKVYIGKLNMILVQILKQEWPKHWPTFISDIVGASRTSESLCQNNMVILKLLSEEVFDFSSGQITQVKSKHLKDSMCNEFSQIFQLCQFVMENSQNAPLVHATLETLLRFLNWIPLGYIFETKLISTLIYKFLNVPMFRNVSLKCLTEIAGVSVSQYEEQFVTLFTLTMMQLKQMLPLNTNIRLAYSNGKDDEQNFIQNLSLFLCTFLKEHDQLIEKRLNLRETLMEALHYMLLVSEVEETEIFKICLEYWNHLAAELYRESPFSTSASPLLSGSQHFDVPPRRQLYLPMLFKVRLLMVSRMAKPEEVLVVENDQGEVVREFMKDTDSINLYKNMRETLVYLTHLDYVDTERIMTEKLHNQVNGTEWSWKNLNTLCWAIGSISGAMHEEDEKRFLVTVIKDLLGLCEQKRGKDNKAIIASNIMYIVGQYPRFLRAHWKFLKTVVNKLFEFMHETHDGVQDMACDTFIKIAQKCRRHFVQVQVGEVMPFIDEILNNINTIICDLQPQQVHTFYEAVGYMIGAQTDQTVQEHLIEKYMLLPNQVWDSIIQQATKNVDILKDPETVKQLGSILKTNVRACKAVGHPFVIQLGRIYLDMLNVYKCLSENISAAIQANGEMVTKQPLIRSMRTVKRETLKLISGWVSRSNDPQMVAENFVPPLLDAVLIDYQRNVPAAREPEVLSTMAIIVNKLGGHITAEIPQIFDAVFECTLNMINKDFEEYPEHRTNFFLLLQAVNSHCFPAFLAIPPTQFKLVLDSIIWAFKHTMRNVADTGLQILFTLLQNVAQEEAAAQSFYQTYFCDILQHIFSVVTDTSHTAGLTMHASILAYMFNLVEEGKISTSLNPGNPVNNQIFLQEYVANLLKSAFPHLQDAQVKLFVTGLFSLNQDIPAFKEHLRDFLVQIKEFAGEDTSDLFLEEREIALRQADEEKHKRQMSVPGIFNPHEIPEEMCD
Method: HeLa cells expressing GFP that was N-terminally fused to a nuclear localization and C-terminally fused to the nuclear export signal of PKI were treated with different concentrations of test compounds for 3 hours and then scored for nuclear localization of GFP.
HeLa cells were cultured in Dulbecco's modified Eagle's medium (DMEM) supplemented with 10% (vol/vol) heat-inactivated fetal calf serum, 2 mM L-glutamine 0.1% sodium bicarbonate, and 20 μg/ml gentamicin. The cells were plated in 96-well plates at 0.02×10^6 cells/well and incubated overnight. The next day, compound was added to the cells and incubated for another 3 hours. After 3 hours, GFP subcellular localization was monitored using a Leica DMI6000 microscope.

MM1.S cells = assay: CellTiter 96 AQueous One Solution cell proliferation assay (MTS); type: cell-based; details: Homo sapiens, 72 h of treatment, MTS absorbance at 490 nm
Description: The CellTiter 96® AQueous One Solution cell proliferation assay (Promega) was used on MM1.S cells to study the cytotoxic and cytostatic properties of the compounds. The assay is based on the cleavage of the tetrazolium salt, MTS, in the presence of an electron-coupling reagent PES (phenazine ethosulfate). The MTS tetrazolium compound is bioreduced by cells into a colored formazan product that is soluble in tissue culture medium. This conversion is presumably accomplished by NADPH or NADH produced by dehydrogenase enzymes in metabolically active cells. Assays are performed by adding a small amount of the CellTiter 96® AQueous One solution reagent directly to culture wells, incubating for 1-4 hours and then recording the absorbance at 490 nm with a 96-well plate reader.
The cells were seeded at 5×10^3 to 1.5×10^4 cells (depending on cell type) in each well of 96-well plate in 100 μL of fresh culture medium and adherent cells were allowed to attach for overnight. The stock solutions of the compounds were diluted in cell culture medium to obtain eight concentrations of each drug, ranging from 1 nM to 30 μM and DMSO at less than 1% v/v was used as a negative control. After 72 h of treatment, 20 μL of CellTiter 96® AQueous reagent was added into each well of the 96-well assay plates and the plate was incubate at 37° C. for 1-4 hours in a humidified, 5% CO2 atmosphere. Then the absorbance of each well was recorded at 490 nm by using a 96-well plate reader. In most cases, the assay was performed in triplicates and the results were presented as half maximal inhibitory concentration (IC50). Optical density versus compound concentration was plotted and analyzed using non linear regression equations (Excel Fit) and the IC50 for each compound was calculated.

| EC50 (CRM1) [nM] | IC50 (MM1.S cells) [nM] | Compound |
| --- | --- | --- |
| 15000 |  | C=C(Cn1nnc(-c2ccccc2)n1)c1nnco1 [Compound 9, 2-(3-(5-phenyl-2H-tetrazol-2-yl)prop-1-en-2-yl)-1,3,4-oxadiazole] |
| 230 | 30 | C=C(Cn1cnc(-c2cc(C(F)(F)F)cc(C(F)(F)F)c2)n1)c1nnco1 [Compound 8, 2-(3-(3-(3,5-bis(trifluoromethyl)phenyl)-1H-1,2,4-triazol-1-yl)prop-1-en-2-yl)-1,3,4-oxadiazole] |
| 1800 | 90 | C=C(Cn1cnc(-c2cc(C(F)(F)F)cc(C(F)(F)F)c2)n1)C(=O)N1CC(F)(F)C1 [Compound 5, 2-((3-(3,5-bis(trifluoromethyl)phenyl)-1H-1,2,4-triazol-1-yl)methyl)-1-(3,3-difluoroazetidin-1-yl)prop-2-en-1-one] |
|  | 10 | C=C(Cn1cnc(-c2cc(C(F)(F)F)cc(C(F)(F)F)c2)n1)C(=O)NNc1cnccn1 [Compound 7, 2-((3-(3,5-bis(trifluoromethyl)phenyl)-1H-1,2,4-triazol-1-yl)methyl)-N′-(pyrazin-2-yl)acrylohydrazide] |
| 3800 |  | C=C(Cn1cnc(-c2cc(OC)cc(C(F)(F)F)c2)n1)C(=O)OCC [Compound 4, ethyl 2-((3-(3-methoxy-5-(trifluoromethyl)phenyl)-1H-1,2,4-triazol-1-yl)methyl)acrylate] |
| > 30000 |  | C=C(Cn1nnc(-c2ccccc2)n1)C(=O)N1CCCCC1 [Compound 10, 2-((5-phenyl-2H-tetrazol-2-yl)methyl)-1-(piperidin-1-yl)prop-2-en-1-one] |
| 1800 | 50 | C=C(Cn1cnc(-c2cc(OC)cc(C(F)(F)F)c2)n1)C(=O)OC(C)C [Compound 3, isopropyl 2-((3-(3-methoxy-5-(trifluoromethyl)phenyl)-1H-1,2,4-triazol-1-yl)methyl)acrylate] |
| 15000 |  | C=C(Cn1nnc(-c2cc(C(F)(F)F)cc(C(F)(F)F)c2)n1)C(=O)OC(C)C [Compound 11, isopropyl 2-((5-(3,5-bis(trifluoromethyl)phenyl)-2H-tetrazol-2-yl)methyl)acrylate] |
| 900 | 70 | C=C(Cn1cnc(-c2cc(C(F)(F)F)cc(C(F)(F)F)c2)n1)C(=O)NNc1ccccn1 [Compound 6, 2-((3-(3,5-bis(trifluoromethyl)phenyl)-1H-1,2,4-triazol-1-yl)methyl)-N′-(pyridin-2-yl)acrylohydrazide] |

| Compound | EC50 (CRM1) [nM] | IC50 (MM1.S cells) [nM] |
| --- | --- | --- |
| C=C(Cn1cnc(-c2cc(C(F)(F)F)cc(C(F)(F)F)c2)n1)C(=O)OC(C)C [Compound 1, isopropyl 2-((3-(3,5-bis(trifluoromethyl)phenyl)-1H-1,2,4-triazol-1-yl)methyl)acrylate] | 900 | 100 |
